The test system of experiment [1] is human colorectal adenocarcinoma HCT15 cells. In words: MTT cell viability assay, HCT15. Format: cell-based. The settings on record: 48 h, read-out: Cell viability as a percentage of the cells treated with DMSO, HCT15; for viability at 20 µM: HCT-15, 20 uM; for viability at 40 µM: HCT-15, 40 uM. The method, boiled down:
(§1)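 Cells cultured in DMEM with 10% FBS were treated with compounds at 20 uM or 40 uM. Viability was read by MTT and expressed as a percentage of DMSO-treated cells.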

For a further experiment, the system named is db/db mice. In words: Hepatic triglyceride, liver histology, serum ALT and ALP in high-fat diet fed db/db mice. The experiment is classed as in vivo, mouse. The conditions noted are these: for Hepatic triglyceride (mM/g): vehicle 148 ± 14; for Serum ALP (U/L): vehicle 129 ± 15. The procedure, abridged: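 High-fat diet fed db/db mice aged 8-10 weeks dosed 10 mg/kg compound once daily for 10 days. Liver sections stained with H&E and 0.3% oil red O; hepatic triglyceride measured by tissue assay kit; serum ALP and ALT activities measured by kit.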

Experiment [2] relates to human breast cancer MCF7 cells. In words: MTT cell viability assay, MCF-7. The experiment is classed as cell-based. The settings on record: 48 h, read-out: Cell viability as a percentage of the cells treated with DMSO, MCF-7. The method, boiled down: as §1
Experiment [3] concerns human cervical carcinoma Hela cells. The experiment is described as follows: MTT cell viability assay, Hela. The settings on record: 48 h, read-out: Cell viability as a percentage of the cells treated with DMSO, Hela. Format: cell-based. The procedure, abridged: as §1
For experiment [4], the system named is human hepatoma HepG2 cells. The experiment is described as follows: MTT cell viability assay, HepG2. Format: cell-based. The conditions noted are these: 48 h, read-out: Cell viability as a percentage of the cells treated with DMSO, HepG2. The method, boiled down: as §1
Experiment [5] has as its system RA-resistant human colon cancer HCT116 cells. The experiment is described as follows: MTT cell viability assay, HCT116. The experiment is classed as cell-based. The conditions noted are these: 48 h, read-out: Cell viability as a percentage of the cells treated with DMSO, HCT116; for viability at 20 µM: HCT-116, 20 uM; for viability at 40 µM: HCT-116, 40 uM. The procedure, abridged: as §1

Experiment [6] deals with T1, FXR ligand binding domain (LBD) (Homo sapiens, UniProt Q96RI1).
T1 construct: made in house
T1 sequence (Q96RI1 262-486 limits assumed): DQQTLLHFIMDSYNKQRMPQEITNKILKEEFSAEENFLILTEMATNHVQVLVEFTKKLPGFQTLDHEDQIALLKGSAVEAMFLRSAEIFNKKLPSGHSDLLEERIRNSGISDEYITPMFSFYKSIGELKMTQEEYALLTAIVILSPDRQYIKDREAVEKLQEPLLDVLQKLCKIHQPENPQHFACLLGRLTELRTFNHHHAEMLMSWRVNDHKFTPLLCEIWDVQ
The experiment is described as follows: AlphaScreen assay: FXR LBD recruitment of coregulator peptide motifs (SRC2-3, SRC1-2). The experiment is classed as biochemical.

A further experiment addresses T2, full-length FXR (Homo sapiens, UniProt Q96RI1).
T2 construct: The cells were co-transfected with plasmids encoding full-length FXR and the cognate luciferase reporter EcRE-Luc; expressed in transfected cells; host or cells: COS-7
T2 sequence (Q96RI1 1-486): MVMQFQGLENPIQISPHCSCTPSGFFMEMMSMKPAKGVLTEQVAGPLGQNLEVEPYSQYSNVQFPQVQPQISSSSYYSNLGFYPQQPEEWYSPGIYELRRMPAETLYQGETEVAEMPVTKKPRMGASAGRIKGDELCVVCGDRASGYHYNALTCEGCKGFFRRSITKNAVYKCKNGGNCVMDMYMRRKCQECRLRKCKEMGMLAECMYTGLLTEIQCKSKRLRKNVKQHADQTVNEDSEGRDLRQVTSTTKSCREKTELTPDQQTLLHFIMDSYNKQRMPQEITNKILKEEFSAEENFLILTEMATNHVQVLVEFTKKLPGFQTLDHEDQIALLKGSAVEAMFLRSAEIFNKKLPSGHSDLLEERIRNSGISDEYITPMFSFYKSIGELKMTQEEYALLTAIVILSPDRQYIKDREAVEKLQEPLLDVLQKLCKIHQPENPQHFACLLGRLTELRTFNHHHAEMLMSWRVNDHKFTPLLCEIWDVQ
In words: Cell-based FXR transactivation, EcRE luciferase reporter in COS-7 cells. The settings on record: for Cell-based FXR transactivation Fold changes by 5 μM compound: positive: induction, minus: repression; for EC50 / fold induction at 5 µM: EcRE luciferase reporter; for Cell-based FXR transactivation Fold changes by 5 μM compound / fold induction at 5 µM: 5 μM compound. The method, boiled down:
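COS-7 cells were transiently cotransfected with full-length FXR, EcRE-Luc reporter and a renilla control. Ligands were added 5 h after transfection, and cells were harvested 24 h later. Firefly luciferase was normalized to renilla in a dual-luciferase read-out.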

The mark [7] stands for this setting: 10 mg/kg for 10 days, vehicle 377 ± 48, Table 15.
The mark [8] stands for this setting: SRC1-2 peptide, Table 2, read-out: EC50 (μM) of FXR binding by AlphaScreen assay recruit SRC1-2.
Setting [9] is: SRC2-3 peptide, Table 2, read-out: EC50 (μM) of FXR binding by AlphaScreen assay recruit SRC2-3.
Where [10] appears, read: 10 mg/kg once daily for 10 days.
The mark [11] stands for this setting: 10 mg/kg once daily for 10 days, vehicle 377 ± 48, Table 17.
[12] abbreviates: SRC1-2 peptide, Table 1, read-out: EC50 (μM) of FXR binding by AlphaScreen assay recruit SRC1-2.
Where [13] appears, read: SRC2-3 peptide, Table 1, read-out: EC50 (μM) of FXR binding by AlphaScreen assay recruit SRC2-3.

Each structure is given as a SMILES string. Like-named read-outs stand apart in the source and are kept apart here. Marks after values point to notes of the source that are not given here. Some results are limits rather than exact numbers.

These results are taken from US20180116993A1, “MODULATORS OF FARNESOID X RECEPTOR AND METHODS FOR THE USE THEREOF” (XIAMEN UNIVERSITY, priority 2015, published 2018).

Regarding `Nc1ccc(C(=O)OC2CCCCCC2)cc1` [XD-12, cycloheptyl 4-aminobenzoate], the viability at 20 µM in experiment [1] was 65 ± 4%; in experiment [2] it was 100 ± 4%; in experiment [3], 100 ± 2%; in experiment [4] it was 100 ± 2%; in experiment [5], 77 ± 3%. For the same molecule, the viability at 40 µM in experiment [1] came to 54 ± 4%; in experiment [2], 82%; in experiment [3], 90 ± 5%; in experiment [4], 97 ± 3%; in experiment [5], 65 ± 3%. Also, the “Hepatic triglyceride (mM/g)” value in the experiment with db/db mice (10 mg/kg for 10 days) is recorded as 103 ± 20 ^a mM/g. In the experiment with db/db mice (setting [7]), the “Serum ALT (U/L)” value is reported as 199 ± 37 ^a U/L. Moreover, the EC50 in experiment [6] (setting [8]) and in experiment [6] (setting [9]) was more than 10 µM throughout. For the same molecule, the “Cell-based FXR transactivation Fold changes by 5 μM compound” value on full-length FXR (Table 2) stood at 1.5.
With `Cc1cc(C(=O)OC2CCC3CCCCC3C2)ccc1O` (centres unmarked) [XD-29, decahydro-naphthalen-2-yl 4-hydroxy-3-methylbenzoate], the viability at 20 µM is 72 ± 2% in experiment [1]; 100 ± 2% in experiment [2]; 96 ± 2% in experiment [3]; 100 ± 2% in experiment [4]; 100 ± 2% in experiment [5]. In addition, the viability at 40 µM was found to be 52 ± 2% in experiment [1]; 88% in experiment [2]; 90 ± 2% in experiment [3]; 98 ± 2% in experiment [4]; 96 ± 2% in experiment [5]. In addition, in the experiment with db/db mice (10 mg/kg for 10 days), the “Hepatic triglyceride (mM/g)” value is listed as 116 ± 11 ^a mM/g. For the same molecule, the “Serum ALT (U/L)” value in the experiment with db/db mice (setting [7]) and in the experiment on db/db mice (setting [11]) was 101 ± 46^b U/L each time. In addition, the “Serum ALP (U/L)” value in the experiment on db/db mice (setting [10]) is listed as 69 ± 9^c U/L. The EC50 is less than 0.5 µM in experiment [6] (setting [8]), less than 0.5 µM in experiment [6] (setting [9]) and less than 1000 nM at full-length FXR (Table 2). In addition, the “Cell-based FXR transactivation Fold changes by 5 μM compound” value on full-length FXR (Table 2) stood at 3.
Regarding `Nc1ccc(C(=O)OC2CCCCCCC2)cc1` [XD-16, cyclooctyl 4-aminobenzoate], the “Hepatic triglyceride (mM/g)” value in the experiment with db/db mice (10 mg/kg for 10 days) is recorded as 81 ± 23 ^a mM/g. Besides, the figures for the “Serum ALT (U/L)” value in the experiment on db/db mice (setting [7]) and in the experiment with db/db mice (setting [11]) were 104 ± 33 ^a U/L and 104 ± 33^a U/L, respectively. Further, the “Serum ALP (U/L)” value with db/db mice (setting [10]) is recorded as 88 ± 10^b U/L. The EC50 is less than 1 µM in experiment [6] (setting [8]), less than 1 µM in experiment [6] (setting [9]) and less than 1000 nM on full-length FXR (Table 2). For the same molecule, the “Cell-based FXR transactivation Fold changes by 5 μM compound” value on full-length FXR (Table 2) worked out at 5.
For `C/C1=C\CCC(C)(O)/C=C/C(C(C)C)C(OC(=O)c2ccc(O)cc2)C1` (centres unmarked) [Feroline], the viability at 20 µM in experiment [1] was 100 ± 2%; in experiment [2], 92 ± 13%; in experiment [3] it was 83%; in experiment [4] it was 84%; in experiment [5], 100 ± 5%. The viability at 40 µM in experiment [1] came out at 76 ± 6%; in experiment [2] it was 86 ± 12%; in experiment [3] it was 67 ± 3%; in experiment [4], 65 ± 3%; in experiment [5], 80 ± 2%. Moreover, the EC50 in experiment [6] (setting [12]) is less than 1 µM; in experiment [6] (setting [13]) it was less than 1 µM; on full-length FXR (Table 1) it was less than 1000 nM. On full-length FXR (Table 1), this molecule gave a fold induction at 5 µM of more than 10.
As to `Nc1ccc(C(=O)OC2CCC3CCCCC3C2)cc1` (centres unmarked) [XD-23, decahydro-naphthalen-2-yl 4-aminobenzoate], the viability at 20 µM in experiment [1] was 81 ± 2%; in experiment [2], 100 ± 2%; in experiment [3], 100 ± 2%; in experiment [4], 100 ± 2%; in experiment [5] it was 75 ± 2%. In addition, the viability at 40 µM in experiment [1] came out at 48 ± 2%; in experiment [2] it was 98 ± 2%; in experiment [3], 95 ± 3%; in experiment [4], 100 ± 2%; in experiment [5], 72 ± 2%. The EC50 in experiment [6] (setting [8]) is less than 0.5 µM; in experiment [6] (setting [9]) it was less than 0.5 µM; on full-length FXR (Table 2), less than 1000 nM. Also, on full-length FXR (Table 2), the “Cell-based FXR transactivation Fold changes by 5 μM compound” value is −30.
For `COc1cc(C(=O)OC2C/C(C)=C/CC/C(C)=C/[C@@H](O)[C@H]2C(C)C)ccc1O` (some centres unmarked) [Tschimganidine], the viability at 20 µM in experiment [1] was found to be 85 ± 9%; in experiment [2] it was 100 ± 4%; in experiment [3], 96%; in experiment [4], 94%; in experiment [5], 95 ± 4%. Also, the viability at 40 µM is 60 ± 10% in experiment [1]; 85% in experiment [2]; 30 ± 5% in experiment [3]; 48 ± 4% in experiment [4]; 40 ± 7% in experiment [5]. The EC50 in experiment [6] (setting [12]) was less than 1 µM; in experiment [6] (setting [13]) it was less than 1 µM; on full-length FXR (Table 1), less than 1000 nM. For the same molecule, the fold induction at 5 µM at full-length FXR (Table 1) is more than 10.
`CC1(C)[C@@H]2CC[C@@]1(C)[C@@H](OC(=O)c1ccc(O)cc1)C2` [Tschimgine]: the viability at 20 µM in experiment [1] stood at 97 ± 6%; in experiment [2], 93%; in experiment [3] it was 94%; in experiment [4] it was 97%; in experiment [5] it was 93 ± 4%. In addition, the viability at 40 µM in experiment [1] came to 31 ± 2%; in experiment [2], 32%; in experiment [3], 31 ± 4%; in experiment [4] it was 30 ± 3%; in experiment [5], 25 ± 5%. Besides, the EC50 was less than 1 µM in experiment [6] (setting [12]), less than 1 µM in experiment [6] (setting [13]) and less than 1000 nM at full-length FXR (Table 1). The fold induction at 5 µM at full-length FXR (Table 1) was more than 10.
For the molecule `COc1cc(C(=O)OC2CCC3CCCCC3C2)ccc1[N+](=O)[O-]` (centres unmarked) [XD-36, decahydro-naphthalen-2-yl 3-methoxy-4-nitrobenzoate], the viability at 20 µM in experiment [1] came to 100 ± 3%; in experiment [2], 100 ± 3%; in experiment [3], 93 ± 3%; in experiment [4], 100 ± 3%; in experiment [5], 93 ± 3%. Besides, the viability at 40 µM in experiment [1] came out at 92 ± 3%; in experiment [2], 87%; in experiment [3], 85 ± 3%; in experiment [4], 81 ± 3%; in experiment [5] it was 91 ± 3%. Also, the EC50 was in the range of 1 to 10 µM in experiment [6] (setting [9]) and 1000 to 10000 nM at full-length FXR (Table 2). In addition, the “Cell-based FXR transactivation Fold changes by 5 μM compound” value on full-length FXR (Table 2) amounted to 3.
